From the supplement of paper PMC10883282

Key:
Assay in all cases: relative viability vs DMSO control (72 h) (fraction); higher = more viable cells
RD-ES = system: RD-ES
In short: (§1)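 After seeding at densities set for 80–90% confluence in 384-well plates, sarcoma cell lines waited 24 h before 2.5 µl of serially diluted compound was added. Source plates held 10 mM down to 0.0002 mM. Plates were incubated 72 h at 37 °C with 5% CO2, with 0.1% DMSO vehicle and a 5 µM positive control, and relative viability was taken from ATPLite as percent growth averaged over up to triplicate wells, with 1 set as full and 0 as none.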

SYO-1 = system: SYO-1
In short: as §1

SK-ES-1 = system: SK-ES-1
In short: as §1

G401 = system: G401
In short: as §1

VA-ES-BJ = system: VA-ES-BJ
In short: as §1

KHOS-240S = system: KHOS-240S
In short: as §1

HT1080 = system: HT1080
In short: as §1

RD = system: RD
In short: as §1

SW982 = system: SW982
In short: as §1

SW1353 = system: SW1353
In short: as §1

SK-LMS-1 = system: SK-LMS-1
In short: as §1

MES-SA = system: MES-SA
In short: as §1

Cc1cc2c(F)c(Oc3ncnn4cc(OC[C@@H](C)O)c(C)c34)ccc2[nH]1 [Brivanib]
Details	relative viability
G401, 0.00017 µM	0.939
G401, 0.00051 µM	0.989
G401, 0.00152 µM	0.965
G401, 0.00457 µM	0.921
G401, 0.01372 µM	0.969
G401, 0.04115 µM	0.979
G401, 0.1235 µM	0.964
G401, 0.3704 µM	0.99
G401, 1.111 µM	0.979
G401, 3.333 µM	0.955
G401, 10 µM	0.922
HT1080, 0.00017 µM	1.04
HT1080, 0.00051 µM	1.026
HT1080, 0.00152 µM	1.05
HT1080, 0.00457 µM	1.06
HT1080, 0.01372 µM	1.07
HT1080, 0.04115 µM	1.02
HT1080, 0.1235 µM	1.02
HT1080, 0.3704 µM	1.06
HT1080, 1.111 µM	1.05
HT1080, 3.333 µM	1.07
HT1080, 10 µM	1.01
KHOS-240S, 0.00017 µM	1.04
KHOS-240S, 0.00051 µM	1.035
KHOS-240S, 0.00152 µM	1.03
KHOS-240S, 0.00457 µM	1.05
KHOS-240S, 0.01372 µM	1.05
KHOS-240S, 0.04115 µM	1.04
KHOS-240S, 0.1235 µM	1.04
KHOS-240S, 0.3704 µM	1.05
KHOS-240S, 1.111 µM	1.03
KHOS-240S, 3.333 µM	1.041
KHOS-240S, 10 µM	0.961
MES-SA, 0.00017 µM	0.897
MES-SA, 0.00051 µM	0.908
MES-SA, 0.00152 µM	0.8964
MES-SA, 0.00457 µM	0.892
MES-SA, 0.01372 µM	0.919
MES-SA, 0.04115 µM	0.917
MES-SA, 0.1235 µM	0.921
MES-SA, 0.3704 µM	0.935
MES-SA, 1.111 µM	0.934
MES-SA, 3.333 µM	0.926
MES-SA, 10 µM	0.636
RD, 0.00017 µM	1.07
RD, 0.00051 µM	1.06
RD, 0.00152 µM	1.08
RD, 0.00457 µM	1.07
RD, 0.01372 µM	1.11
RD, 0.04115 µM	1.1
RD, 0.1235 µM	1.1
RD, 0.3704 µM	1.091
RD, 1.111 µM	1.08
RD, 3.333 µM	1.07
RD, 10 µM	0.964
RD-ES, 0.00017 µM	0.961
RD-ES, 0.00051 µM	0.966
RD-ES, 0.00152 µM	0.985
RD-ES, 0.00457 µM	1
RD-ES, 0.01372 µM	0.996
RD-ES, 0.04115 µM	1
RD-ES, 0.1235 µM	1.01
RD-ES, 0.3704 µM	0.994
RD-ES, 1.111 µM	1
RD-ES, 3.333 µM	0.988
RD-ES, 10 µM	0.947
SK-ES-1, 0.00017 µM	1.04
SK-ES-1, 0.00051 µM	1.04
SK-ES-1, 0.00152 µM	1.07
SK-ES-1, 0.00457 µM	1.07
SK-ES-1, 0.01372 µM	1.02
SK-ES-1, 0.04115 µM	1.05
SK-ES-1, 0.1235 µM	1.04
SK-ES-1, 0.3704 µM	0.997
SK-ES-1, 1.111 µM	1.022
SK-ES-1, 3.333 µM	1.06
SK-ES-1, 10 µM	0.952
SK-LMS-1, 0.00017 µM	1.03
SK-LMS-1, 0.00051 µM	1.03
SK-LMS-1, 0.00152 µM	1.02
SK-LMS-1, 0.00457 µM	1.03
SK-LMS-1, 0.01372 µM	1.02
SK-LMS-1, 0.04115 µM	1.03
SK-LMS-1, 0.1235 µM	1.06
SK-LMS-1, 0.3704 µM	1.02
SK-LMS-1, 1.111 µM	1.04
SK-LMS-1, 3.333 µM	1.03
SK-LMS-1, 10 µM	0.687
SW982, 0.00017 µM	1.03
SW982, 0.00051 µM	1.03
SW982, 0.00152 µM	1.05
SW982, 0.00457 µM	1.07
SW982, 0.01372 µM	1.05
SW982, 0.04115 µM	1.05
SW982, 0.1235 µM	1.035
SW982, 0.3704 µM	1.06
SW982, 1.111 µM	1.034
SW982, 3.333 µM	1.07
SW982, 10 µM	1.06
SW1353, 0.00017 µM	0.963
SW1353, 0.00051 µM	0.991
SW1353, 0.00152 µM	0.952
SW1353, 0.00457 µM	0.96
SW1353, 0.01372 µM	0.976
SW1353, 0.04115 µM	0.935
SW1353, 0.1235 µM	0.944
SW1353, 0.3704 µM	1.01
SW1353, 1.111 µM	0.982
SW1353, 3.333 µM	1
SW1353, 10 µM	0.997
SYO-1, 0.00017 µM	0.941
SYO-1, 0.00051 µM	0.936
SYO-1, 0.00152 µM	0.931
SYO-1, 0.00457 µM	0.935
SYO-1, 0.01372 µM	0.919
SYO-1, 0.04115 µM	0.925
SYO-1, 0.1235 µM	0.921
SYO-1, 0.3704 µM	0.906
SYO-1, 1.111 µM	0.861
SYO-1, 3.333 µM	0.792
SYO-1, 10 µM	0.609
VA-ES-BJ, 0.00017 µM	1.01
VA-ES-BJ, 0.00051 µM	1.03
VA-ES-BJ, 0.00152 µM	1
VA-ES-BJ, 0.00457 µM	0.996
VA-ES-BJ, 0.01372 µM	0.96
VA-ES-BJ, 0.04115 µM	1
VA-ES-BJ, 0.1235 µM	1.011
VA-ES-BJ, 0.3704 µM	1.03
VA-ES-BJ, 1.111 µM	1.06
VA-ES-BJ, 3.333 µM	1.07
VA-ES-BJ, 10 µM	1.07
